Reference: publication PMC6582486, “Stapled EGFR peptide reduces inflammatory breast cancer and inhibits additional HER-driven models of cancer” (Journal of Translational Medicine, 2019)
Like-named read-outs stand apart in the source and are kept apart here. Where a SMILES comes first, the peptide text is derived from it. Bridges are numbered along the chain shown (N, C = ends). [ ]: non-standard residue; d: D form. R8 = C=CCCCCCC[C@@](C)(N)C(=O)O; S5 = C=CCCC[C@](C)(N)C(=O)O

Tests used:
MCF10A breast cells = test: Cell viability assay (MTT), MCF10A; format: cell-based, human
From the text: (§1) Fig. 1 Hydrocarbon stapling leads to increased EJ1 activity in comparison to HER-directed monoclonal therapies. a EJ1 sequence with PTD4 domain (underlined) corresponding to EGFR juxtamembrane domain sequence 643–663. Stabilized alpha helix (SAH) variations 1–5 beneath, with asterisks (*) indicating sites of staple. Control peptide (CP) with altered residues indicated by double underline. Stapled control (5) asterisks (*) indicate sites of staple. b Cartoon representation of EJ1 structure, with staple variation 5 highlighted. Positively charged residues indicated in blue, negatively charged residues in red. c Cartoon representation of CP structure, with staple variation highlighted. d Cell viability assay performed in MDA-MB-468 cells after 24 h comparing unstapled EJ1 versus staple variations SAH1, SAH4, and SAH5, with increasing concentrations. e Visualization of MDA-MB-468 cells untreated, treated with 10 µM EJ1, and 10 µM SAH5-EJ1 after 60 min. Scale bars represent 50 µm. f–h Cell viability assay performed in MDA-MB-468, MCF10A, or CHO cells over 3 days comparing treatment with Sapitinib (blue lines), SAH5-EJ1 (red lines), and SAH5-CP (grey lines). […] Absorbance was read at 540 nm by plate reader (uQuant, Bio-Tek Instruments). P-values were calculated from a one-way ANOVA.

CHO cells = test: Cell viability assay (MTT), CHO; format: cell-based, Chinese Hamster; settings: 5 µM (Fig. 1h)
From the text: as §1

[1] = test system: luciferized murine glioma (Ink4a/ARF-/-; hEGFRvIII); test: Orthotopic EGFRvIII glioblastoma mouse model, survival; format: in vivo, nude mice; settings: SAH5-EJ1 10 µg/g IV (N = 4), control peptide N = 6
Method: Patient samples used were provided by the Biobank Core Facility at Barrow Neurological Institute. Samples were de-identified and conformed to the Biobank IRB protocol. Patient-derived cell lines (GB16 and GB71) were established from resected primary GBM tumor tissue. Tissue was processed using the Gentle MACS Dissociator and Tumor Tissue Dissociation kit (Miltenyi Biotec Inc.; Auburn, CA). Animal husbandry was performed according to the guidelines of St. Joseph Hospital and Medical Center and Barrow Neurological Institute under the Institutional Animal Care and Use Committee-approved protocol. Five- to six-week-old CrTac: NCr-Foxn1^nu nude mice (Taconic Biosciences; Hudson, NY) were used for in vivo orthotropic transplant of luciferized murine glioma model (Ink4a/ARF^−/−; hEGFRvIII). For orthotopic transplants, 2 μL of dissociated cells at a density of 100,000 cells/μL were injected in the right striatum, as described previously. In vivo tumor growth was measured by IVIS xenogen bioluminescence imaging (BLI) system after IP injection of 150 mg/kg Luciferin (Gold Biotechnology; St, Louis, MO) every week after 1-month post-surgery. […]
Fig. 2 SAH5-EJ1 enters cells, colocalizes with mitochondria, and survives in vivo, resulting in glioblastoma-derived cell death and glioma mouse model survival. […] H Luminescence distribution throughout organs. […]

[2] = test system: Erlotinib-resistant lung adenocarcinoma PDX TM00784; test: Lung cancer PDX mouse model TM00784; format: in vivo
From the text: The following PDX mouse models were generated by Jackson Labs (Sacramento, CA): Breast TM01278; Grade 3 invasive ductal carcinoma, primary malignancy; EGFR inactivating R521K mutation; ERBB3 G1288A mutation in kinase domain with unknown effects on activity; increased EGFR/ERBB2/ERBB3. Lung TM00784; Grade 3 lung adenocarcinoma, primary malignancy; EGFR activating L858R mutation; increased EGFR, decreased ERBB2/ERBB3/ERBB4. All animals were maintained as outlined by University of Arizona Institutional Animal Care and Use Committee (IACUC) by the Experimental Mouse Shared Resource (EMSR).
Fig. 3 SAH5-EJ1 inhibits growth and prolongs survival in PDX models of lung cancer. a, b Cell viability assays performed in A549 or EGFR T790M mutated H1975 lung adenocarcinoma cells over 3 days comparing treatment with Sapitinib (blue lines) to SAH5-EJ1 (red lines). Solid lines represent 24 h; dashed lines represent 72 h. Data shown represent mean ± percent difference of assays performed in quadruplicate. c Reduction in tumor burden in Erlotinib-resistant lung cancer PDX mouse model TM00784 with various doses of intravenous SAH5-EJ1. Control represents water as a vehicle control. *p < 0.05 (Control vs 1 µg/g); **p < 0.01 (Control vs 1 µg/g and vs 10 µg/g). d Kaplan–Meier curve of lung PDX mouse model treated with control (blue line) or either 1 or 10 µg/g SAH5-EJ1 (green line and red line, respectively). Data shown represent mean. N = 6 for all groups

[3] = test system: MDA-MB-468 breast cancer cells; format: cell-based, human; settings: for increase in efficacy over unstapled EJ1: MDA-MB-468 cell viability, ratio of IC50
From the text: Fig. 1 Hydrocarbon stapling leads to increased EJ1 activity in comparison to HER-directed monoclonal therapies. a EJ1 sequence with PTD4 domain (underlined) corresponding to EGFR juxtamembrane domain sequence 643–663. Stabilized alpha helix (SAH) variations 1–5 beneath, with asterisks (*) indicating sites of staple. Control peptide (CP) with altered residues indicated by double underline. Stapled control (5) asterisks (*) indicate sites of staple. b Cartoon representation of EJ1 structure, with staple variation 5 highlighted. Positively charged residues indicated in blue, negatively charged residues in red. c Cartoon representation of CP structure, with staple variation highlighted. d Cell viability assay performed in MDA-MB-468 cells after 24 h comparing unstapled EJ1 versus staple variations SAH1, SAH4, and SAH5, with increasing concentrations. e Visualization of MDA-MB-468 cells untreated, treated with 10 µM EJ1, and 10 µM SAH5-EJ1 after 60 min. Scale bars represent 50 µm. f–h Cell viability assay performed in MDA-MB-468, MCF10A, or CHO cells over 3 days comparing treatment with Sapitinib (blue lines), SAH5-EJ1 (red lines), and SAH5-CP (grey lines). […] Data shown in d, f, g–i represent mean ± percent difference of assays performed in triplicate 1000–3000 cells were plated in 96-well plates (Falcon; Corning, NY) and allowed to adhere for 24–48 h prior to therapeutic introduction. Compounds were added and incubated on cells for 3 days in serum-containing media, followed by 2 h treatment with MTT (Sigma M5655) with the resulting formazan solubilized in DMSO. Absorbance was read at 540 nm by plate reader (uQuant, Bio-Tek Instruments). P-values were calculated from a one-way ANOVA.

In the case of `CC[C@H](C)[C@H](NC(=O)[C@H](Cc1c[nH]cn1)NC(=O)[C@H](CCCNC(=N)N)NC(=O)[C@H](CCCNC(=N)N)NC(=O)[C@H](CCCNC(=N)N)NC(=O)[C@H](CCSC)NC(=O)[C@H](Cc1ccccc1)NC(=O)[C@H](C)NC(=O)[C@H](CCCNC(=N)N)NC(=O)[C@H](C)NC(=O)[C@H](CCC(N)=O)NC(=O)[C@H](CCCNC(=N)N)NC(=O)[C@H](C)NC(=O)[C@H](C)NC(=O)[C@H](C)NC(=O)[C@H](CCCNC(=N)N)NC(=O)[C@H](C)NC(=O)[C@@H](N)Cc1ccc(O)cc1)C(=O)N[C@H](C(=O)N[C@@H](CCCNC(=N)N)C(=O)N[C@@H](CCCCN)C(=O)N[C@@H](CCCNC(=N)N)C(=O)N[C@]1(C)CCCCCCC=CCCC[C@@](C)(C(=O)N[C@@H](CCCNC(=N)N)C(=O)N[C@@H](CCC(=O)O)C(N)=O)NC(=O)[C@H](CCC(N)=O)NC(=O)[C@H](CC(C)C)NC(=O)[C@H](CC(C)C)NC(=O)[C@H](CCCNC(=N)N)NC(=O)[C@H](CCCNC(=N)N)NC(=O)[C@H](CC(C)C)NC1=O)C(C)C` [SAH5-EJ1] (H-YARAAARQARAFMRRRHIVRKR[R8]LRRLLQ[S5]RE-NH2; staple 23-30), the “concentration at which complete cell death was observed” value (MCF10A breast cells) is reported as 10 µM, the cell viability (CHO cells) is reported as 67% and the “mice alive after 72 days” value [1] is reported as 75%. The “survival relative to control-treated mice” value ([2]; 1 µg/g (low dose) IV) was 1.7 ×, the “decrease in average tumor burden” value ([2]; 1 µg/g IV, N = 6) was over 50% and the “toxicity in the model” value ([2]; 1 or 10 µg/g IV) was “no detected toxicity”. For the same compound, the IC50 ([3]; 24 h) was 2500 nM, the cell death ([3]; MDA-MB-468, 4 µM, after 1 day) was “complete cell death” and the “increase in efficacy over unstapled EJ1” value [3] was “more than 7 fold”. The “increase in efficacy over unstapled EJ1” value ([3]; listed as SAH-EJ1) was 7.2 fold.
